The nature of data set [1]: MTT cytotoxicity, Vero cells. The following applies: African green monkey; Vero cells. In kind it is cell-based, African green monkey. The method, then: (§1) Human peripheral blood mononuclear (PBM), T lymphoblast CEM-CCRF (herein referred to as CEM cells), African green monkey kidney (Vero), or human liver carcinoma (HepG2) cells were tested via MTT assay using the CellTiter 96 Non-Radioactive Cell Proliferation (Promega) kit as previously described.[63]

The nature of data set [2]: MTT cytotoxicity, HepG2 cells. Format: cell-based, human. The following applies: human; HepG2 cells. The method, then:
as §1

Data set [3] is described as follows: MTT cytotoxicity, PBM cells. Format: cell-based, human. The following applies: human. The method, then: as §1
The nature of data set [4]: MTT cytotoxicity, CEM cells. In kind it is cell-based, human. The note with it: human. The method, then:
as §1

Data set [5] deals with HBV DNA replication in HepAD38 cells. The data set can be described thus: HBV DNA replication inhibition assay in HepAD38 cells (7 days, PCR of supernatant DNA). In kind it is cell-based, hepatitis B virus. The following applies: HepAD38 cells. The method, then:
HepAD38 cells were seeded at 50,000 cells/well in collagen-coated 96-well plates. […] The experiment lasted 7 days. On day 7, total DNA was purified from the supernatant using a commercially available kit (DNeasy 96 Blood & Tissue kit, Qiagen). The HBV DNA was amplified in a polymerase chain reaction assay using LightCycler 480 II (Roche), as previously described.[63] All samples were tested in duplicate.

Data set [6] deals with African green monkey kidney (Vero) cells. The data set can be described thus: MTT cytotoxicity, Vero cells. Format: cell-based. The following applies: Vero cells. The method, then:
as §1

Data set [7] relates to human liver carcinoma (HepG2) cells. As to the kind of experiment: MTT cytotoxicity, HepG2 cells. The note with it: HepG2 cells. In kind it is cell-based. The method, then:
as §1

The test system of data set [8] is human peripheral blood mononuclear (PBM) cells. As to the kind of experiment: MTT cytotoxicity, PBM cells. Format: cell-based. The method, then:
as §1

Data set [9] has as its system T lymphoblast CEM-CCRF (CEM) cells. The data set can be described thus: MTT cytotoxicity, CEM cells. Format: cell-based, human. The method, then: as §1
Setting [10] is: trial 1, read-out: EC50, trial 1.
Setting [11] is: trial 2, read-out: EC50, trial 2.

From article PMC11019538, “Biophysics-Guided Lead Discovery of HBV Capsid Assembly Modifiers” (ACS Infectious Diseases, 2024) come the findings set out here.

Where two headings read alike, the source gives them in different places.

As for `C[C@@H]1C[C@@H]([C@H](O)CC2CC(=O)NC(=O)C2)C(=O)[C@@H](C)C1` [Cycloheximide, reference compound], the CC50 was determined as 0.2 µM in data set [1], 0.3 µM in data set [2], 0.9 µM in [3] and 0.2 µM in data set [4].
On to `O=C(NCCN1CCOCC1)c1ccc2nc(-c3ccccc3)c(-c3ccccc3)nc2c1` [GT-36], for which the “% HBV DNA Inh. at 10 μM, trial 1” value in data set [5] (trial 1) is 11%. In addition, the “% HBV DNA Inh. at 10 μM, trial 2” value in data set [5] (trial 2) was 11%. Further, the EC50 in data set [5] (setting [10]) and in data set [5] (setting [11]) was over 10 µM throughout. Further, the CC50 in [6] worked out at 31 µM; in data set [7] it was 29 µM; in data set [8] it was 10 µM; in data set [9] it was 18 µM.
As for `Cc1nc2ccccc2nc1-c1sc2ncccc2c1O` [GT-37], the “% HBV DNA Inh. at 10 μM, trial 1” value in data set [5] (trial 1) is 40%. Moreover, in data set [5] (trial 2), the “% HBV DNA Inh. at 10 μM, trial 2” value is 40%. Further, the EC50 in data set [5] (setting [10]) and in [5] (setting [11]) was over 10 µM in each case. Moreover, the cytotoxic concentration (CC50) in data set [6] was 19 µM; in data set [7], 24 µM; in data set [8] it was over 100 µM; in data set [9], over 100 µM. Besides, in [8], the “percent cytotoxicity (cell growth inhibition) at 100 µM” value is reported as 48%. Moreover, the “% cytotoxicity at 100 µM (MTT), CEM cells” value in [9] (100 µM) was under 1%.
For `COc1ccc(F)c(Cn2cnc(-c3ccccc3)c2-c2c[nH]cn2)c1F` [GT-38], the “% HBV DNA Inh. at 10 μM, trial 1” value in data set [5] (trial 1) amounted to 45%. Moreover, the “% HBV DNA Inh. at 10 μM, trial 2” value in [5] (trial 2) amounted to 45%. The EC50 in data set [5] (setting [10]) and in data set [5] (setting [11]) was over 10 µM throughout. Also, the half-maximal cytotoxic concentration (CC50) is 48 µM in [6], 24 µM in data set [7], over 100 µM in [8] and 62 µM in data set [9]. Besides, the “percent cytotoxicity (cell growth inhibition) at 100 µM” value in [8] amounted to 24%.
In the case of `OC(Cn1cnc(-c2ccccc2)c1-c1cc2ccccc2[nH]1)c1cccnc1` (centres unmarked) [GT-41], in data set [5] (trial 1), the “% HBV DNA Inh. at 10 μM, trial 1” value was under 1%. For the same compound, in data set [5] (trial 2), the “% HBV DNA Inh. at 10 μM, trial 2” value was under 1%. The EC50 in data set [5] (setting [10]) and in [5] (setting [11]) was over 10 µM throughout. Moreover, the CC50 was determined as 18 µM in data set [6], 10 µM in [7], 27 µM in data set [8] and 12 µM in [9].
`O=C(Cc1ccc(O)cc1)NCc1nc(-c2cccc(F)c2)c(-c2ccccn2)[nH]1` [GT-42]: the “% HBV DNA Inh. at 10 μM, trial 1” value in data set [5] (trial 1) was under 1%. In data set [5] (trial 2), the “% HBV DNA Inh. at 10 μM, trial 2” value is recorded as under 1%. Moreover, the EC50 in data set [5] (setting [10]) and in data set [5] (setting [11]) was over 10 µM each time. Moreover, the CC50 in [6] came out at 13 µM; in data set [7], 5.4 µM; in data set [8], 3.5 µM; in data set [9], 1.4 µM.
For the compound `Cc1ccc(-c2nc(CNC(=O)C3CCOC3)[nH]c2-c2ccccn2)cc1` (centres unmarked) [GT-43], the “% HBV DNA Inh. at 10 μM, trial 1” value in data set [5] (trial 1) came to 4.7%. In data set [5] (trial 2), the “% HBV DNA Inh. at 10 μM, trial 2” value came to 4.7%. The EC50 in data set [5] (setting [10]) and in [5] (setting [11]) was over 10 µM each time. The CC50 in data set [6] was determined as 19 µM; in [7] it was 29 µM; in data set [8] it was 42 µM; in [9] it was 30 µM.
As to `CC(=O)N1CCC(NCc2nc(-c3ccc(C)cc3)c(-c3ccccn3)[nH]2)CC1` [GT-44], in data set [5] (trial 1), the “% HBV DNA Inh. at 10 μM, trial 1” value turned out to be 37%. In addition, the “% HBV DNA Inh. at 10 μM, trial 2” value in [5] (trial 2) was determined as 37%. Further, the EC50 in data set [5] (setting [10]) and in [5] (setting [11]) was over 10 µM in each case. The CC50 in data set [6] is over 100 µM; in data set [7] it was 70 µM; in [8], 64 µM; in data set [9] it was 63 µM. The “% cytotoxicity (MTT) at 100 µM” value in data set [6] (100 µM) worked out at 54%.
For `Oc1c(C(Nc2ccccc2)c2ccccc2)ccc2cccnc12` (centres unmarked) [GT-48], the “% HBV DNA Inh. at 10 μM, trial 1” value in data set [5] (trial 1) was under 1%. In addition, the “% HBV DNA Inh. at 10 μM, trial 2” value in data set [5] (trial 2) is under 1%. Moreover, the EC50 in [5] (setting [10]) and in data set [5] (setting [11]) was over 10 µM in each case. Also, the CC50 stood at 4.5 µM in [6], 34 µM in data set [7], 20 µM in data set [8] and 3.4 µM in [9].
`CCN(CC)CCCNc1cc(OC)c(Nc2ccccc2)c2cccnc12` [GT-49]: in [5] (trial 1), the “% HBV DNA Inh. at 10 μM, trial 1” value came to 45%. Further, in [5] (trial 2), the “% HBV DNA Inh. at 10 μM, trial 2” value is 45%. Also, the EC50 in data set [5] (setting [10]) and in data set [5] (setting [11]) was over 10 µM in each case. Moreover, the half-maximal cytotoxic concentration (CC50) was 16 µM in data set [6], 17 µM in data set [7], 27 µM in data set [8] and 9.4 µM in [9].

As usually defined, the CC50 is the concentration at which the toxic effect on the cells reaches its halfway point. The EC50 is the concentration at which the effect is half-maximal.
